“Also recorded” adds a separate entry of the source.
Legend:
[1] = molecular target: μ opioid receptor (Cavia porcellus, UniProt A0ACM8Q262); experiment: competitive binding assay with [3H]DAMGO in guinea pig brain membranes; settings: for affinity for the μ opioid receptor, in words: comparator, if any, as in the value; for Ki: read-out: Ki, μ opioid receptor, [3H]DAMGO, guinea pig brain membranes
[2] = molecular target: T1, δ opioid receptor (Cavia porcellus, UniProt A0A286XTF2); experiment: competitive binding assay with [3H]naltrindole in guinea pig brain membranes
T1 construct: from tissue; host or cells: guinea pig brain membranes

[3] = molecular target: T2, κ opioid receptor (Cavia porcellus, UniProt P41144); experiment: competitive binding assay with [3H]U69,593 in guinea pig brain membranes; settings: for affinity for the κ opioid receptor, in words: comparator, if any, as in the value; for increase in affinity at the κ opioid receptor: relative to levorphanol; for κ/δ selectivity: κ versus δ binding
T2 construct: from tissue; host or cells: guinea pig brain membranes

## Oc1ccc2c(c1)[C@@]13CCCC[C@H]1[C@@H](C2)N(CCCF)CC3 [Compound 3]
[1]
  affinity for the μ opioid receptor, in words: high affinity
  Ki: 0.18 nM
[2]
  Ki: 0.85 nM
[3]
  Ki: 0.083 nM
  affinity for the κ opioid receptor, in words: high affinity

## Oc1ccc2c(c1)[C@@]13CCCC[C@H]1[C@@H](C2)N(CC1CCC1)CC3 [MCL-101, reference compound]
[1]
  affinity for the μ opioid receptor, in words: almost the same affinity for the μ and κ opioid receptors as cyclorphan
[1]; relative to levorphanol
  increase in affinity at the μ opioid receptor: 2 fold
[2]; relative to levorphanol
  increase in affinity at the δ opioid receptor: 3 fold
[3]
  affinity for the κ opioid receptor, in words: almost the same affinity for the μ and κ opioid receptors as cyclorphan
  increase in affinity at the κ opioid receptor: 30 fold
  κ/δ selectivity: 18 fold

## C=CCN1CC[C@]23CCCC[C@H]2[C@H]1Cc1ccc(O)cc13 [Compound 8, levallorphan, reference compound]
[1]; relative to levorphanol
  change in affinity for the μ opioid receptor, in words: almost no changes in affinity
[2]; relative to levorphanol
  change in affinity for the δ opioid receptor, in words: almost no changes in affinity
[3]
  increase in affinity at the κ opioid receptor: 15 fold

## Oc1ccc2c(c1)[C@@]13CCCC[C@H]1[C@@H](C2)N(CC1CC1)CC3 [cyclorphan, reference compound]
[3]
  κ/δ selectivity: 4 fold

## I/C=C/CN1CC[C@]23CCCC[C@H]2[C@H]1Cc1ccccc13 [Compound 34, N-(3-iodoprop-(2E)-enyl)morphinan]
[1]
  affinity for the μ opioid receptor, in words: Ki values in the picomolar range; also recorded: very high affinity
[2]; in comparison to compound 9
  decreased affinity for the δ opioid receptor: 43 fold
[3]
  affinity for the κ opioid receptor, in words: Ki values in the picomolar range; also recorded: very high affinity
[3]; in comparison to compound 9
  decreased affinity for the κ opioid receptor: 10 fold

## COCCN1CC[C@]23CCCC[C@H]2[C@H]1Cc1ccc(O)cc13 [Compound 6]
[1]
  affinity for the μ opioid receptor, in words: high affinity
  Ki: 0.11 nM
[3]
  Ki: 0.094 nM
  affinity for the κ opioid receptor, in words: high affinity

## I/C=C\CN1CC[C@]23CCCC[C@H]2[C@H]1Cc1ccccc13 [Compound 35, N-(3-iodoprop-(2Z)-enyl)morphinan]
[1]; relative to 34
  decreased affinity for the μ receptor: 100 fold
[3]; relative to 34
  decreased affinity for the κ receptor: 17 fold

Source: patent US7291628B2, “Treatment of cocaine abuse using N-substituted derivatives of morphinan” (McLean Hospital Corporation, priority 2001, dated 2007)
